Columns and labels:
[1] = tested on: P. falciparum stage V female gametocytes; test: P. falciparum female gametocyte activation assay (Pf FGAA), 24 h or 48 h preincubation, Pfs25 expression readout; type: cell-based, Plasmodium falciparum NF54; settings: P. falciparum female gametocytes; mean; read-out: Gametocytes mean Pf FGAA IC50
How it was run: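 Female activation, triggered by xanthurenic acid and cooling, was scored by imaging Cy3-labelled anti-Pfs25 female gametes after 24 h at 26 °C. Beforehand, purified NF54 stage V gametocytes had been incubated with compound for either 24 h or 48 h (37 °C, 3% O2). Values are pIC50 from full-curve regression.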

[2] = tested on: P. falciparum stages IV–V gametocytes; test: Gametocytocidal ATP-depletion assay (gametocyte ATP bioluminescence); type: cell-based, Plasmodium falciparum
How it was run: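 Read-out is luciferase luminescence of parasite ATP (BacTiter-Glo), standing in for viability. Double-purified mature stage IV–V gametocytes, 12,500 per well, were exposed 48 h at 37 °C in low-O2 gas; screening concentration 2 μM.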

[3] = tested on: P. falciparum asexual blood stages; settings: TCAMS asexual blood stage data; ref 1 (Gamo, F. J. et al., Nature 465, 305-310, 2010); read-out: Pf Asexual blood stages XC50; cited from earlier work
HepG2 cells = test: HepG2 cytotoxicity assay; type: cell-based; settings: HepG2 cells; mean
How it was run: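 Luminescent read-out (CellTiter-Glo) taken 10 min after reagent addition at RT; plates and reagent pre-equilibrated 30 min at RT.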

Row | SMILES | IC50 [1] [nM] | Gametocytes mean ATP inhibition at 2µM [2] [%] | IC50 [3] [nM] | HepG2 cells mean TOX50 (HepG2 cells) [µM]
1 | O=C(O)C(F)(F)F.O=S(=O)(NCCN1CCCC1)c1cccc(-c2ccc(CNC3Cc4ccccc4C3)cc2)c1 [TCMDC-132241] | 3100 | 3.92 | 660 | 6.46
2 | Cc1cc(-c2ccc(CNC3Cc4ccccc4C3)cc2)ccc1S(=O)(=O)NCCN1CCCC1.O=C(O)C(F)(F)F [TCMDC-132243] | 1830 | 16.13 | 700 | 5.31
3 | COc1ccc(CNC2Cc3ccccc3C2)cc1-c1ccc(S(=O)(=O)NCCN2CCCC2)cc1.O=C(O)C(F)(F)F [TCMDC-132248] | 1990 | 20.60 | 580 | 5.89
4 | COc1ccc(CNC2Cc3ccccc3C2)cc1-c1ccc(OC)c(S(=O)(=O)NCCN2CCCC2)c1.O=C(O)C(F)(F)F [TCMDC-132251] | 2700 | 24.03 | 770 | 7.17
5 | COc1ccc(CNC2CCN(C)CC2)cc1-c1ccc(S(=O)(=O)NCc2ccccc2)s1.O=C(O)C(F)(F)F [TCMDC-132253] | 1750 | -2.80 | 230 | 5.50
6 | COc1ccc(CNC2Cc3ccccc3C2)cc1-c1ccc(S(=O)(=O)NCCN2CCCC2)s1.O=C(O)C(F)(F)F [TCMDC-132258] | 1390 | 59.91 | 190 | 5.31
7 | COc1ccc(CNC2Cc3ccccc3C2)cc1-c1ccc(S(=O)(=O)NCCN2CCCC2)c(F)c1.O=C(O)C(F)(F)F [TCMDC-132266] | 1950 | 7.12 | 720 | 6.03
8 | Cl.N[C@@H](CCNC1CCN(c2cccc(C(F)(F)F)c2)CC1)Cc1ccc(F)c(F)c1 [TCMDC-132301] | 440 | 70.53 | 1280 | 3.76
9 | Cc1ccc(Cn2nc(N3CCNCC3)ccc2=O)cc1NC(=O)Nc1ccc(-c2ccccc2)cc1.O=C(O)C(F)(F)F [TCMDC-132580] | 1940 | 1.45 | 840 | 7.42
10 | O=S(=O)(Nc1cccc(F)c1CNCc1ccccn1)c1ccc(Cl)c(Cl)c1 [TCMDC-132598] | 1360 | 51.32 | 890 | 20.42
11 | NCc1ccc(CNCc2cccc(-c3ccc(-c4nc5cc(C(F)(F)F)ccc5[nH]4)cc3)c2)cc1.O=C(O)C(F)(F)F [TCMDC-132811] | 830 | -6.09 | 260 | 14.65
12 | NCc1ccc(CNCc2ccc(-c3ccc(-c4nc5cc(C(F)(F)F)ccc5[nH]4)s3)cc2)cc1.O=C(O)C(F)(F)F [TCMDC-132814] | 1020 | 6.11 | 160 | 8.32
13 | CNCCNCc1ccc(-c2ccc(-c3nc4cc(C(F)(F)F)ccc4[nH]3)s2)cc1.O=C(O)C(F)(F)F [TCMDC-132838] | 1280 | -8.87 | 600 | 6.10
14 | FC(F)(F)c1ccc2[nH]c(-c3ccc(-c4ccc(CNCCN5CCNCC5)cc4)s3)nc2c1.O=C(O)C(F)(F)F [TCMDC-132862] | 3000 | -0.18 | 910 | 12.88
15 | FC(F)(F)c1ccc2[nH]c(-c3ccc(-c4cccc(CNCCN5CCNCC5)c4)cc3)nc2c1.O=C(O)C(F)(F)F [TCMDC-132864] | 1710 | 10.30 | 1030 | 12.31
16 | FC(F)(F)c1ccc2[nH]c(-c3cccc(-c4cccc(CNCCN5CCNCC5)c4)c3)nc2c1.O=C(O)C(F)(F)F [TCMDC-132871] | 1220 | 0.88 | 940 | 6.61
17 | FC(F)(F)c1ccc2[nH]c(-c3cccc(-c4ccc(CNCCN5CCNCC5)cc4)c3)nc2c1.O=C(O)C(F)(F)F [TCMDC-132872] | 1790 | -15.41 | 860 | 8.81
18 | CCCN(CC1CC1)c1ncc(-c2cccc(CNCCC3CCCN3C)c2)cn1 (centres unmarked) [TCMDC-133142] | 2180 | 6.70 | 750 | 3.09

Row | SMILES | IC50 [1] [nM] | Gametocytes mean ATP inhibition at 2µM [2] [%] | IC50 [3] [nM] | HepG2 cells mean TOX50 (HepG2 cells) [µM]
19 | CN(CCc1ccccc1)c1ncc(-c2cccc(CNCCC3CCCN3C)c2)cn1 (centres unmarked) [TCMDC-133143] | 1360 | 11.85 | 870 | 2.88
20 | CN1CCCC1CCNCc1cccc(-c2cnc(N3CCCC(C)(C)C3)nc2)c1 (centres unmarked) [TCMDC-133144] | 1670 | 3.15 | 930 | 4.63
21 | O=C(Nc1cccc(-c2cccc(-c3nc4cc(C(F)(F)F)ccc4[nH]3)c2)c1)Nc1ccc(F)c(F)c1F [TCMDC-133229] | 1400 | -42.33 | 120 | 3.43
22 | COc1cc(-c2cc(-c3ccc(S(C)(=O)=O)cc3)cnc2N)ccc1O [TCMDC-133343] | 390 | 57.72 | 100 | 41.69
23 | COc1ccccc1C1CCN(C2CCC(NC(=O)c3ccc4[nH]c(-c5ccc(C)cc5)nc4c3)CC2)CC1 (centres unmarked) [TCMDC-133556] | 2490 | 22.02 | 310 | 3.99
24 | CN1CCC(N2CCN(Cc3cccc(-c4ccc(-c5nc6cc(C(F)(F)F)ccc6[nH]5)cc4)c3)CC2)CC1.O=C(O)C(F)(F)F [TCMDC-133842] | 1090 | 4.02 | 140 | 2.44
25 | CN1CCCC(CN2CCN(Cc3cccc(-c4ccc(-c5nc6cc(C(F)(F)F)ccc6[nH]5)cc4)c3)CC2)C1.O=C(O)C(F)(F)F (centres unmarked) [TCMDC-133882] | 1300 | 1.53 | 150 | 4.07
26 | O=C(O)C(F)(F)F.c1cc(CN2CCC(CCN3CCCCC3)CC2)cc(-c2csc(-c3nc4ccccc4[nH]3)c2)c1 [TCMDC-133919] | 2110 | 3.61 | 140 | 6.04
27 | Fc1ccc2[nH]c(-c3ccc(-c4ccc(CN5CCC(CCN6CCCCC6)CC5)cc4)cc3)nc2c1.O=C(O)C(F)(F)F [TCMDC-133924] | 1700 | 11.89 | 130 | 3.94
28 | Fc1ccc2[nH]c(-c3cccc(-c4ccc(CN5CCC(CCN6CCCCC6)CC5)cc4)c3)nc2c1.O=C(O)C(F)(F)F [TCMDC-133940] | 1880 | -4.48 | 140 | 4.79
29 | FC(F)(F)c1ccc2[nH]c(-c3ccc(-c4cccc(CN5CCC(CCN6CCCCC6)CC5)c4)cc3)nc2c1.O=C(O)C(F)(F)F [TCMDC-133941] | 1260 | -7.71 | 150 | 4.45
30 | Cn1c(Nc2cc(C(C)(C)C)on2)nc2cc(Nc3ccnc(Nc4cccc(S(=O)(=O)N5CCOCC5)c4)n3)ccc21 [TCMDC-134098] | 1190 | 17.18 | 530 | 8.13
31 | Cc1cc(Nc2ncc(C#N)c(Nc3ccccc3C(N)=O)n2)ccc1N1CCN(C)CC1.Cl [TCMDC-134115] | 1670 | 20.18 | 9 | 0.40
32 | Cc1n[nH]c2ccc(-c3ccc4nccc(N5CCC(N)CC5)c4c3)cc12.Cl [TCMDC-134315] | 2450 | 71.38 | 590 | 6.88
33 | CC(C)c1ccc(CN2CCC(CNC(=O)c3cc(-c4cccc(C(F)(F)F)c4)cs3)C2)cc1.O=C(O)C(F)(F)F (centres unmarked) [TCMDC-134435] | 1300 | -4.54 | 910 | 5.13
34 | CC(C)c1ccc(CN2CCC(CNC(=O)c3cc(-c4ccccc4F)cs3)C2)cc1.O=C(O)C(F)(F)F (centres unmarked) [TCMDC-134436] | 1080 | -11.71 | 990 | 9.14
35 | CC(C)c1ccc(CN2CCC(CNC(=O)c3cc(-c4cccc(F)c4)cs3)C2)cc1.O=C(O)C(F)(F)F (centres unmarked) [TCMDC-134437] | 1370 | 7.50 | 1660 | 6.24
